# Source: the supplement of paper PMC11061612
# What was measured:
# [1] = compound: CC(=O)Nc1cccc(-n2c(=O)n(C3CC3)c(=O)c3c(Nc4ccc(I)cc4F)n(C)c(=O)c(C)c32)c1 [Trametinib]; conditions: max 1 µM
# Procedure, shortened: (§1)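 Viability was measured with CellTiter-Glo 2.0 luminescence after 72 hours of dosing at a final DMSO of typically 0.2%, and scaled between blank-well and DMSO-well means. Beforehand, cancer cell lines sat 24 hours at 37°C and 5% CO2 in 1536-well plates in 7.5 μl DMEM/F12 or RPMI with 10% FBS. A non-linear mixed effects model fitted two-parameter logistic curves to the dose responses. The single-agent IC50 comes from these fits.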
# [2] = compound: CC(=O)c1c(C)c2cnc(Nc3ccc(N4CCNCC4)cn3)nc2n(C2CCCC2)c1=O [Palbociclib]; conditions: max 10 µM
# Procedure, shortened: as §1
# [3] = compound: NC1(c2ccc(-c3nc4ccn5c(=O)[nH]nc5c4cc3-c3ccccc3)cc2)CCC1 [MK-2206]; conditions: max 10 µM
# Procedure, shortened: as §1
# [4] = compound: O=C(Nc1ccc2[nH]nc(-c3ccncc3)c2c1)[C@@H]1CCN(CC(=O)N2CCN(c3ccc(-c4ncccn4)cc3)CC2)C1; conditions: max 5 µM
# Procedure, shortened: as §1
# [5] = compound: COc1cc([C@@H]2c3cc4c(cc3[C@@H](O[C@@H]3O[C@@H]5CO[C@@H](C)O[C@H]5[C@H](O)[C@H]3O)[C@H]3COC(=O)[C@H]23)OCO4)cc(OC)c1O [Etoposide]; conditions: max 10 µM
# Procedure, shortened: as §1
# [6] = compound: COc1cccc2c1C(=O)c1c(O)c3c(c(O)c1C2=O)C[C@@](O)(C(=O)CO)C[C@@H]3O[C@H]1C[C@H](N)[C@H](O)[C@H](C)O1 [Doxorubicin]; conditions: max 1 µM
# Procedure, shortened: as §1
# [7] = compound: C=CCn1c(=O)c2cnc(Nc3ccc(N4CCN(C)CC4)cc3)nc2n1-c1cccc(C(C)(C)O)n1 [AZD1775]; conditions: max 3 µM
# Procedure, shortened: as §1
# [8] = compound: O=C(c1cc(Cc2n[nH]c(=O)c3ccccc23)ccc1F)N1CCN(C(=O)C2CC2)CC1 [Olaparib]; conditions: max 10 µM
# Procedure, shortened: as §1
# [9] = compound: CC1(C)CCC(CN2CCN(c3ccc(C(=O)NS(=O)(=O)c4ccc(NCC5CCOCC5)c([N+](=O)[O-])c4)c(Oc4cnc5[nH]ccc5c4)c3)CC2)=C(c2ccc(Cl)cc2)C1 [Venetoclax]; conditions: max 1 µM
# Procedure, shortened: as §1
# [10] = compound: CN(CC[C@H](CSC1=CC=CC=C1)NC2=C(C=C(C=C2)S(=O)(=O)NC(=O)C3=CC=C(C=C3)N4CCC(CC4)[C@H](C5=CC=CC=C5C6=CC=C(C=C6)Cl)O)S(=O)(=O)C(F)(F)F)CCO [AZD4320]; conditions: max 1 µM
# Procedure, shortened: as §1
# [11] = compound: CCc1c2c(nc3ccc(O)cc13)-c1cc3c(c(=O)n1C2)COC(=O)[C@]3(O)CC [SN-38]; conditions: max 0.3 µM
# Procedure, shortened: as §1
# [12] = compound: COc1nnc2ccc(N3CCC(c4ccc(OCCN5CCN(C)C(=O)[C@H]5C)cc4)CC3)nn12 [AZD5153]; conditions: max 1 µM
# Procedure, shortened: as §1
# [13] = compound: C[C@@H]1COCCN1C2=NC(=NC(=C2)C3(CC3)[S@](=N)(=O)C)C4=C5C=CNC5=NC=C4 [AZD6738]; conditions: max 10 µM
# Procedure, shortened: as §1
# [14] = compound: CCN(CCO)CCCOc1ccc2c(Nc3cc(CC(=O)Nc4cccc(F)c4)[nH]n3)ncnc2c1 [AZD2811]; conditions: max 1 µM
# Procedure, shortened: as §1
# [15] = compound: O=c1[nH]cc(F)c(=O)[nH]1 [5-Fluorouracil]; conditions: max 20 µM
# Procedure, shortened: as §1
# [16] = compound: C[C@@H](Nc1cc(F)cc(F)c1)c1cc(C(=O)N(C)C)cc2c(=O)cc(N3CCOCC3)oc12 [AZD8186]; conditions: max 10 µM
# Procedure, shortened: as §1
# [17] = compound: C1CN(CCC1(C(=O)N[C@@H](CCO)C2=CC=C(C=C2)Cl)N)C3=NC=NC4=C3C=CN4 [AZD5363]; conditions: max 10 µM
# Procedure, shortened: as §1
# [18] = compound: Cn1cnc2c(F)c(Nc3ccc(Br)cc3Cl)c(C(=O)NOCCO)cc21 [Selumetinib]; conditions: max 10 µM
# Procedure, shortened: as §1
# [19] = compound: Cc1c2c(nn1C)CSCc1cc(n(C)n1)CSc1cc(c3ccccc3c1)OCCCc1c(C(=O)O)n(C)c3c-2c(Cl)ccc13 [AZD5991]; conditions: max 1 µM
# Procedure, shortened: as §1
# [20] = compound: CC(=O)O[C@H]1C(=O)[C@@]2(C)[C@H]([C@H](OC(=O)c3ccccc3)[C@]3(O)C[C@H](OC(=O)[C@H](O)[C@@H](NC(=O)c4ccccc4)c4ccccc4)C(C)=C1C3(C)C)[C@]1(OC(C)=O)CO[C@@H]1C[C@@H]2O [Paclitaxel]; conditions: max 3 µM
# Procedure, shortened: as §1
# [21] = compound: CN(C)CCCOc1ccc(-c2ccc3ncc4c(c3c2)n(C2CCOCC2)c(=O)n4C)cn1 [AZD0156]; conditions: max 3 µM
# Procedure, shortened: as §1
# [22] = compound: C[C@@H](Oc1cc(-c2cnn(C3CCNCC3)c2)cnc1N)c1c(Cl)ccc(F)c1Cl [Crizotinib]; conditions: max 10 µM
# Procedure, shortened: as §1
# [23] = compound: Cc1nc(-c2cn3c(n2)-c2ccc(-c4cnn(C(C)(C)C(N)=O)c4)cc2OCC3)n(C(C)C)n1 [Taselisib]; conditions: max 10 µM
# Procedure, shortened: as §1
# [24] = compound: N#Cc1cnc(Nc2cc(NC[C@H]3CNCCO3)c(C(F)(F)F)cn2)cn1 [SRA737]; conditions: max 10 µM
# Procedure, shortened: as §1
# [25] = compound: CC1=C(C(=CC=C1)Cl)NC(=O)C2=CN=C(S2)NC3=CC(=NC(=N3)C)N4CCN(CC4)CCO [Dasatinib]; conditions: max 2 µM
# Procedure, shortened: as §1
# [26] = compound: COc1cc2ncnc(Nc3ccc(F)c(Cl)c3)c2cc1OCCCN1CCOCC1 [Gefitinib]; conditions: max 10 µM
# Procedure, shortened: as §1
# [27] = compound: C[C@@H](c1ccc2nccn2c1)n1nnc2ncc(-c3cnn(C)c3)nc21 [Savolitinib]; conditions: max 1 µM
# Procedure, shortened: as §1
# [28] = compound: Cc1cc2ncnn2cc1Nc1ncc2c(n1)n(C1CCOCC1)c(=O)n2C [AZD7648]; conditions: max 10 µM
# Procedure, shortened: as §1
# [29] = compound: COc1cc(Nc2ncc3c(n2)-c2ccc(Cl)cc2C(c2c(F)cccc2OC)=NC3)ccc1C(=O)O [Alisertib]; conditions: max 10 µM
# Procedure, shortened: as §1
# [30] = compound: Nc1ccn([C@@H]2O[C@H](CO)[C@@H](O)C2(F)F)c(=O)n1 [Gemcitabine]; conditions: max 0.3 µM
# Procedure, shortened: as §1
# [31] = compound: COc1cccc(OCCCN)c1-c1cc(Nc2cnc(C#N)cn2)n[nH]1 [Prexasertib]; conditions: max 1 µM
# Procedure, shortened: as §1
# [32] = compound: CC(C)n1c(=O)n(C)c2cnc3cc(F)c(-c4ccc(OCCCN5CCCCC5)nc4)cc3c21 [AZD1390]; conditions: max 0.3 µM
# Procedure, shortened: as §1
# [33] = compound: CC1=CN2[C@@H](C1)C=NC3=CC(=C(C=C3C2=O)OC)OCCCCCOC4=C(C=C5C(=C4)N=C[C@@H]6CC(=CN6C5=O)C)OC [SG3199]; conditions: max 0.001 µM
# Procedure, shortened: as §1
# [34] = compound: C1CC(C1)(C(=O)[O-])C(=O)[O-].N.N.[Pt+2] [Carboplatin]; conditions: max 10 µM
# Procedure, shortened: as §1
# [35] = compound: CS(=O)(=O)CCNCc1ccc(-c2ccc3ncnc(Nc4ccc(OCc5cccc(F)c5)c(Cl)c4)c3c2)o1 [Lapatinib]; conditions: max 10 µM
# Procedure, shortened: as §1
Cell Line,"IC50, cell viability 72 h [1]","IC50, cell viability 72 h [2]","IC50, cell viability 72 h [3]","IC50, cell viability 72 h [4]","IC50, cell viability 72 h [5]","IC50, cell viability 72 h [6]","IC50, cell viability 72 h [7]","IC50, cell viability 72 h [8]","IC50, cell viability 72 h [9]","IC50, cell viability 72 h [10]","IC50, cell viability 72 h [11]","IC50, cell viability 72 h [12]","IC50, cell viability 72 h [13]","IC50, cell viability 72 h [14]","IC50, cell viability 72 h [15]","IC50, cell viability 72 h [16]","IC50, cell viability 72 h [17]","IC50, cell viability 72 h [18]","IC50, cell viability 72 h [19]","IC50, cell viability 72 h [20]","IC50, cell viability 72 h [21]","IC50, cell viability 72 h [22]","IC50, cell viability 72 h [23]","IC50, cell viability 72 h [24]","IC50, cell viability 72 h [25]","IC50, cell viability 72 h [26]","IC50, cell viability 72 h [27]","IC50, cell viability 72 h [28]","IC50, cell viability 72 h [29]","IC50, cell viability 72 h [30]","IC50, cell viability 72 h [31]","IC50, cell viability 72 h [32]","IC50, cell viability 72 h [33]","IC50, cell viability 72 h [34]","IC50, cell viability 72 h [35]"
EW-3 (Ewing's Sarcoma),> 1 µM,> 10 µM,> 10 µM,> 5 µM,1.1 µM,0.0867 µM,2.3 µM,> 10 µM,0.401 µM,0.0276 µM,0.00207 µM,0.496 µM,2.03 µM,> 1 µM,> 20 µM,> 10 µM,> 10 µM,> 10 µM,0.47 µM,0.0175 µM,> 3 µM,9.57 µM,> 10 µM,> 10 µM,> 2 µM,> 10 µM,> 1 µM,> 10 µM,8.57 µM,0.00811 µM,0.183 µM,> 0.3 µM,> 0.001 µM,> 10 µM,> 10 µM
GI-1 (Glioblastoma),> 1 µM,> 10 µM,> 10 µM,> 5 µM,4.03 µM,0.67 µM,0.755 µM,> 10 µM,> 1 µM,> 1 µM,0.00955 µM,0.303 µM,2.1 µM,> 1 µM,> 20 µM,9.59 µM,7.33 µM,> 10 µM,0.737 µM,0.0102 µM,> 3 µM,5.43 µM,3.04 µM,3.87 µM,> 2 µM,> 10 µM,> 1 µM,> 10 µM,> 10 µM,0.0533 µM,0.0178 µM,> 0.3 µM,> 0.001 µM,> 10 µM,> 10 µM
H-EMC-SS (Chondrosarcoma),0.293 µM,> 10 µM,> 10 µM,> 5 µM,> 10 µM,0.428 µM,> 3 µM,> 10 µM,> 1 µM,> 1 µM,0.153 µM,> 1 µM,> 10 µM,> 1 µM,> 20 µM,> 10 µM,> 10 µM,> 10 µM,> 1 µM,> 3 µM,> 3 µM,> 10 µM,3.36 µM,> 10 µM,> 2 µM,> 10 µM,> 1 µM,> 10 µM,8.38 µM,> 0.3 µM,> 1 µM,> 0.3 µM,> 0.001 µM,> 10 µM,> 10 µM
HSC-2 (Oral Cavity Carcinoma),> 1 µM,> 10 µM,> 10 µM,> 5 µM,4.42 µM,0.367 µM,2.13 µM,> 10 µM,> 1 µM,> 1 µM,0.00535 µM,0.238 µM,8.5 µM,> 1 µM,> 20 µM,> 10 µM,> 10 µM,> 10 µM,0.439 µM,0.00331 µM,> 3 µM,> 10 µM,0.171 µM,> 10 µM,0.176 µM,3.96 µM,> 1 µM,> 10 µM,2.4 µM,0.0182 µM,0.124 µM,> 0.3 µM,> 0.001 µM,> 10 µM,4.01 µM
JHH-7 (Hepatocellular Carcinoma),> 1 µM,> 10 µM,> 10 µM,> 5 µM,> 10 µM,> 1 µM,2.61 µM,> 10 µM,> 1 µM,> 1 µM,> 0.3 µM,> 1 µM,> 10 µM,> 1 µM,> 20 µM,> 10 µM,> 10 µM,> 10 µM,> 1 µM,0.66 µM,> 3 µM,> 10 µM,> 10 µM,> 10 µM,> 2 µM,> 10 µM,> 1 µM,> 10 µM,> 10 µM,> 0.3 µM,> 1 µM,> 0.3 µM,> 0.001 µM,> 10 µM,> 10 µM
